Source: patent US7538094B2, “Composition containing ribavirin and use thereof” (Three Rivers Pharmacueticals, LLC, priority 2002, dated 2009)

What was measured:
[1] = cited from earlier work
[2] = cited from earlier work; remark: listed apart in the source
[3] = Angle of repose (flowability); format: physicochemical; details: sample passed through 12 mesh screen, funnel with 1 cm aperture
Excerpt: Another measure of flowability can be made by determining a material's angle of repose. The angle of repose is a standard test in the pharmaceutical industry to establish the relative flowability of a solid pharmaceutical formulation. (See, e.g., Lachman et al., “The Theory and Practice of Industrial Pharmacy” 3rd Ed. (1986) pp 67-68). A greater angle of repose means a less flowable material. Remington's Pharmaceuticals Sciences lists the angle of repose for glass beads (a high flowing material) at 23 degrees and for granular limestone (a poor flowing material) at 64 degrees. Cohesive materials can be as high as 90 degrees. (See Remington's Pharmaceutical Sciences, 19th Ed. Mack Publishing Co., (1995) p. 1607).
Angle of repose data was collected for ribavirin composition made in accordance with Examples 1 and 3 and compared to bulk ribavirin and a commercial ribavirin product. In determining the angle of repose for the compositions of the present invention and comparative examples thereto, a sample was passed through a 12 mesh screen to break up agglomerates. […] The funnel height was then measured, as well as the diameter (width) of the sample. […] The angle of repose for a given sample was calculated by taking the inverse tangent of the following equation: Tan (a)=2H/W, where H is the height of the funnel from the paper and W is the averaged diameter of the poured sample at its base.

Repose Angle, Trial 1 ([3]; Trial 1): 44 °
Repose Angle, Trial 2 ([3]; Trial 2): 42 °
SMILES: NC(=O)c1ncn([C@@H]2O[C@H](CO)[C@@H](O)[C@H]2O)n1 [ribavirin, 1-β-D-ribofuranosyl-1H-1,2,4-triazole-3-carboxamide]
solubility [1]: water-soluble
bioavailability with food ([2]; administered with a high fat meal): increase significantly
biological half-life ([2]; in vivo, after multiple oral dosing (steady state)): ca. 298 hours
bioavailability (AUC) versus dose ([2]; oral administration, Physician's Desk Reference): increases linearly with the dose
maximum concentration of the drug in vivo (Cmax) versus dose ([2]; oral administration, curvilinear, reaching an asymptote, Physician's Desk Reference): does not increase linearly with the dose
